Legend:
Test in all cases: cells
EW-22 = format: functional, cell-based, Homo sapiens; details: Homo sapiens, EW-22;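 further: growth inhibition of the EW-22 cell line, measured with a cell viability readout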
Description: SANGER: Inhibition of human EW-22 cell growth in a cell viability assay.

M059J = format: functional, cell-based, Homo sapiens; details: Homo sapiens, M059J;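 further: growth inhibition of M059J cells, read out with a cell viability assay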
Description: SANGER: Inhibition of human M059J cell growth in a cell viability assay.

KOSC-2 = format: functional, cell-based, Homo sapiens; details: Homo sapiens, KOSC-2;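 further: growth inhibition of KOSC-2 cells, read out by a cell viability assay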
Description: SANGER: Inhibition of human KOSC-2 cell growth in a cell viability assay.

GMS-10 = format: functional, cell-based, Homo sapiens; details: Homo sapiens, GMS-10;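 further: growth inhibition of GMS-10 cells, read out as cell viability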
Description: SANGER: Inhibition of human GMS-10 cell growth in a cell viability assay.

NCI-H2291 = format: functional, cell-based, Homo sapiens; details: Homo sapiens, NCI-H2291
Description: SANGER: Inhibition of human NCI-H2291 cell growth in a cell viability assay.

SK-MEL3 = format: functional, cell-based, Homo sapiens, SK-MEL-3; details: Homo sapiens, SK-MEL3;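 further: growth inhibition of human SK-MEL-3 cells, read out with a cell viability assay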
Description: SANGER: Inhibition of human SK-MEL-3 cell growth in a cell viability assay.

SK-MEL-28 = format: functional, cell-based, Homo sapiens; details: Homo sapiens, SK-MEL-28;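 further: growth inhibition of human SK-MEL-28 cells, read out with a cell viability assay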
Description: SANGER: Inhibition of human SK-MEL-28 cell growth in a cell viability assay.

HMV-2 cell line = format: functional, cell-based, Homo sapiens; details: Homo sapiens, HMV-2;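 further: growth inhibition of HMV-II cells, read out with a cell viability assay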
Description: SANGER: Inhibition of human HMV-II cell growth in a cell viability assay.

HCC1419 = format: functional, cell-based, Homo sapiens; details: Homo sapiens, HCC1419;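 further: growth inhibition of human HCC1419 cells, read out as cell viability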
Description: SANGER: Inhibition of human HCC1419 cell growth in a cell viability assay.

769-P = format: functional, cell-based, Homo sapiens; details: Homo sapiens, 769-P
Description: SANGER: Inhibition of human 769-P cell growth in a cell viability assay.

RMG-I = format: functional, cell-based, Homo sapiens; details: Homo sapiens, RMG-I;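 further: growth inhibition of human RMG-I cells, read out with a cell viability assay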
Description: SANGER: Inhibition of human RMG-I cell growth in a cell viability assay.

CAL-85-1 = format: functional, cell-based, Homo sapiens; details: Homo sapiens, CAL-85-1;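 further: growth inhibition of human CAL-85-1 cells, read out with a cell viability assay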
Description: SANGER: Inhibition of human CAL-85-1 cell growth in a cell viability assay.

MKN-7 = format: functional, cell-based, Homo sapiens; details: Homo sapiens, MKN-7;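 further: growth inhibition of MKN-7 cells, read out with a cell viability assay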
Description: SANGER: Inhibition of human MKN7 cell growth in a cell viability assay.

BXPC-3 = format: functional, cell-based, Homo sapiens; details: Homo sapiens, BXPC-3;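 further: growth inhibition of human BxPC-3 cells, read out by a cell viability assay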
Description: SANGER: Inhibition of human BxPC-3 cell growth in a cell viability assay.

COR-L105 = format: functional, cell-based, Homo sapiens; details: Homo sapiens, COR-L105;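 further: cell growth inhibition determined with a viability assay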
Description: SANGER: Inhibition of human COR-L105 cell growth in a cell viability assay.

COLO-741 = format: functional, cell-based, Homo sapiens; details: Homo sapiens, COLO-741
Description: SANGER: Inhibition of human COLO-741 cell growth in a cell viability assay.

NCI-H1573 = format: functional, cell-based, Homo sapiens; details: Homo sapiens, NCI-H1573;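 further: growth inhibition of NCI-H1573 cells, read out with a cell viability assay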
Description: SANGER: Inhibition of human NCI-H1573 cell growth in a cell viability assay.

C32 = format: functional, cell-based, Homo sapiens; details: Homo sapiens, C32;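 further: cell viability assay, with IC50 reflecting inhibition of C32 cell growth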
Description: SANGER: Inhibition of human C32 cell growth in a cell viability assay.

OAW-42 = format: functional, cell-based, Homo sapiens; details: Homo sapiens, OAW-42;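 further: growth inhibition of OAW-42 cells, read out with a cell viability assay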
Description: SANGER: Inhibition of human OAW-42 cell growth in a cell viability assay.

NCI-H1993 = format: functional, cell-based, Homo sapiens; details: Homo sapiens, NCI-H1993;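 further: growth inhibition of the cancer cell line, assessed with a cell viability assay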
Description: SANGER: Inhibition of human NCI-H1993 cell growth in a cell viability assay.

PANC-08-13 = format: functional, cell-based, Homo sapiens; details: Homo sapiens, PANC-08-13;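 further: cell growth inhibition, measured with a cell viability assay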
Description: SANGER: Inhibition of human PANC-08-13 cell growth in a cell viability assay.

RERF-LC-MS = format: functional, cell-based, Homo sapiens; details: Homo sapiens, RERF-LC-MS;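 further: growth inhibition of human RERF-LC-MS cells, read out by a cell viability assay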
Description: SANGER: Inhibition of human RERF-LC-MS cell growth in a cell viability assay.

U-118-MG = format: functional, cell-based, Homo sapiens; details: Homo sapiens, U-118-MG
Description: SANGER: Inhibition of human U-118-MG cell growth in a cell viability assay.

GP5d = format: functional, cell-based, Homo sapiens; details: Homo sapiens, GP5d;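 further: growth inhibition of human GP5d cells, read out with a cell viability assay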
Description: SANGER: Inhibition of human GP5d cell growth in a cell viability assay.

HOS = format: functional, cell-based, Homo sapiens; details: Homo sapiens, HOS;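 further: growth inhibition of human HOS cells, read out with a cell viability assay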
Description: SANGER: Inhibition of human HOS cell growth in a cell viability assay.

KYSE-410 = format: functional, cell-based, Homo sapiens; details: Homo sapiens, KYSE-410;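 further: growth inhibition of KYSE-410 cells, measured through a cell viability readout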
Description: SANGER: Inhibition of human KYSE-410 cell growth in a cell viability assay.

Panc1005 = format: functional, cell-based, Homo sapiens; details: Homo sapiens, Panc1005;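 further: growth inhibition of human PANC-10-05 cells, measured by a cell viability assay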
Description: SANGER: Inhibition of human PANC-10-05 cell growth in a cell viability assay.

SAS = format: functional, cell-based, Homo sapiens; details: Homo sapiens, SAS;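 further: growth inhibition of SAS cells, read out with a cell viability assay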
Description: SANGER: Inhibition of human SAS cell growth in a cell viability assay.

SNU-449 = format: functional, cell-based, Homo sapiens; details: Homo sapiens, SNU-449
Description: SANGER: Inhibition of human SNU-449 cell growth in a cell viability assay.

D-336MG = format: functional, cell-based, Homo sapiens; details: Homo sapiens, D-336MG
Description: SANGER: Inhibition of human D-336MG cell growth in a cell viability assay.

MDA-MB-231 = format: functional, cell-based, Homo sapiens; details: Homo sapiens, MDA-MB-231
Description: SANGER: Inhibition of human MDA-MB-231 cell growth in a cell viability assay.

NCI-H1563 = format: functional, cell-based, Homo sapiens; details: Homo sapiens, NCI-H1563;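 further: growth inhibition of human NCI-H1563 cells, read out with a cell viability assay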
Description: SANGER: Inhibition of human NCI-H1563 cell growth in a cell viability assay.

NCI-H1793 = format: functional, cell-based, Homo sapiens; details: Homo sapiens, NCI-H1793;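 further: cell growth inhibition, read out by a cell viability assay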
Description: SANGER: Inhibition of human NCI-H1793 cell growth in a cell viability assay.

EFM-19 = format: functional, cell-based, Homo sapiens; details: Homo sapiens, EFM-19;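 further: growth inhibition of human EFM-19 cells, measured in a cell viability assay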
Description: SANGER: Inhibition of human EFM-19 cell growth in a cell viability assay.

DK-MG = format: functional, cell-based, Homo sapiens; details: Homo sapiens, DK-MG;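 further: growth inhibition of DK-MG cells, read out with a cell viability assay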
Description: SANGER: Inhibition of human DK-MG cell growth in a cell viability assay.

MKN-1 = format: functional, cell-based, Homo sapiens; details: Homo sapiens, MKN-1;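 further: growth inhibition of human MKN1 cells, read out by a cell viability measurement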
Description: SANGER: Inhibition of human MKN1 cell growth in a cell viability assay.

KYSE-150 cell line = format: functional, cell-based, Homo sapiens; details: Homo sapiens, KYSE-150;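 further: growth inhibition of human KYSE-150 cells, read out with a cell viability assay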
Description: SANGER: Inhibition of human KYSE-150 cell growth in a cell viability assay.

D-423MG = format: functional, cell-based, Homo sapiens; details: Homo sapiens, D-423MG
Description: SANGER: Inhibition of human D-423MG cell growth in a cell viability assay.

HSC-4 = format: functional, cell-based, Homo sapiens; details: Homo sapiens, HSC-4;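 further: growth inhibition of human HSC-4 cells, read out with a cell viability assay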
Description: SANGER: Inhibition of human HSC-4 cell growth in a cell viability assay.

| Compound | IC50 (M059J) [µM] | IC50 (KOSC-2) [µM] | IC50 (GMS-10) [µM] | IC50 (NCI-H2291) [µM] | IC50 (HCC1419) [µM] | IC50 (769-P) [µM] | IC50 (RMG-I) [µM] | IC50 (BXPC-3) [µM] | IC50 (COR-L105) [µM] | IC50 (NCI-H1573) [µM] | IC50 (C32) [µM] | IC50 (OAW-42) [µM] | IC50 (PANC-08-13) [µM] | IC50 (RERF-LC-MS) [µM] | IC50 (GP5d) [µM] | IC50 (HOS) [µM] | IC50 (KYSE-410) [µM] | IC50 (SAS) [µM] | IC50 (SNU-449) [µM] | IC50 (NCI-H1563) [µM] | also measured |
| --- | --- | --- | --- | --- | --- | --- | --- | --- | --- | --- | --- | --- | --- | --- | --- | --- | --- | --- | --- | --- | --- |
| COc1cc2c(Nc3ccc(NC(=O)c4ccccc4)cc3)ncnc2cc1OCCCN1CCOCC1 | > 4 | > 4 | > 4 | > 4 | > 4 | > 4 | > 4 | > 4 | > 4 | > 4 | 3.83 | > 4 | > 4 | > 4 | > 4 | > 4 | > 4 | > 4 | > 4 | > 4 | IC50 (EW-22): 3.18 µM; IC50 (SK-MEL3): > 4 µM; IC50 (SK-MEL-28): > 4 µM; IC50 (HMV-2 cell line): > 4 µM; IC50 (CAL-85-1): > 4 µM; IC50 (MKN-7): > 4 µM; IC50 (COLO-741): > 4 µM; IC50 (NCI-H1993): > 4 µM; IC50 (U-118-MG): > 4 µM; IC50 (Panc1005): > 4 µM; IC50 (D-336MG): > 4 µM; IC50 (MDA-MB-231): > 4 µM; IC50 (NCI-H1793): > 4 µM; IC50 (EFM-19): > 4 µM; IC50 (DK-MG): > 4 µM; IC50 (MKN-1): > 4 µM; IC50 (KYSE-150 cell line): > 4 µM; IC50 (D-423MG): > 4 µM |
| CN(C)C(=N)NC(=N)N [METFORMIN] | > 20000 | 3400 | > 20000 | > 20000 | > 20000 | 6920 | > 20000 | > 20000 | > 20000 | 16900 | > 20000 | 18100 | > 20000 | 14400 | > 20000 | > 20000 | > 20000 | 11300 | > 20000 | 8610 | IC50 (HSC-4): 5480 µM; IC50 (NCI-H1793): 18500 µM; IC50 (D-423MG): 3260 µM |
| CC1(C)CNc2cc(NC(=O)c3cccnc3NCc3ccncc3)ccc21 [MOTESANIB] | > 2 | > 2 | > 2 | > 2 | > 2 | > 2 | > 2 | > 2 | > 2 | > 2 | > 2 | > 2 | > 2 | > 2 | > 2 | > 2 | > 2 | > 2 | > 2 | > 2 | IC50 (EW-22): > 2 µM; IC50 (SK-MEL3): > 2 µM; IC50 (SK-MEL-28): > 2 µM; IC50 (HMV-2 cell line): > 2 µM; IC50 (CAL-85-1): > 2 µM; IC50 (MKN-7): > 2 µM; IC50 (COLO-741): > 2 µM; IC50 (NCI-H1993): > 2 µM; IC50 (U-118-MG): > 2 µM; IC50 (Panc1005): > 2 µM; IC50 (D-336MG): > 2 µM; IC50 (MDA-MB-231): > 2 µM; IC50 (NCI-H1793): > 2 µM; IC50 (EFM-19): > 2 µM; IC50 (DK-MG): > 2 µM; IC50 (MKN-1): > 2 µM; IC50 (KYSE-150 cell line): > 2 µM; IC50 (D-423MG): > 2 µM |
